Consider 2 compounds from patent US20170232059A1, “COMPOSITION COMPRISING OXYTOCIN” (PEP-TONIC MEDICAL AB, priority 2012, published 2017).

Read-outs that look alike come from different tables or passages of the source. Starred links: 1 amine or outer side, 2 acyl side, 3 side chain; linkers in the order of their positions; H or OH if unused. Positions of bridges follow the written chain, without caps; N, C: chain ends. Residues, ends and D or L forms follow the SMILES beside them. X1 = O=C(CCC[*:2])[*:1]

Data set [1] in a line: Blood plasma levels of oxytocin after intravaginal administration (Example 1) and AUC calculation. The class given is in vivo, human. On the procedure: The first value is taken before the treatment of intravaginal oxytocin has started.
Blood samples were collected from 20 individuals before and repeatedly after administration of oxytocin during a 90 minute period. […] (FIG. 2).
The amount of oxytocin which is absorbed following intravaginal administration of oxytocin expressed as area under the curve (AUC) can be calculated using the trapezoid method according to standardized pharmacokinetic procedures as the clearance rat for oxytocin (CL) is known (70 L/H).
As oxytocin levels were only measured during a 90 minute period it had to be assumed that the concentration of oxytocin after 2 hours continues to fall according to the half-life of oxytocin.

The nature of data set [2]: Skin penetration in Franz diffusion cells. The class given is in vitro ADME, pig. The following applies: for share that has penetrated the skin: of 200 IU (approx. 0.4 mg). On the procedure: Skin penetration was performed in Franz diffusion cells using dermatomed pig's ear skin (thickness approx. 500 μm and surface area 0.64 cm^2). The receptor volume of each cell was 6 mL and citrate buffer, pH 4.5 was used as receptor media. The temperature was maintained at 32° C. and the stirring speed in the receptor chamber was kept at 300 rpm. Sampling was done in triplicate at 24 hours intervals for 4 days, i.e. 24, 48, 72 and 96 h. 1.5 mL of receptor media was taken and replaced with the same volume of citrate buffer. Immediately after collection the samples were kept at −20° C.
A water solution of oxytocin was prepared in a concentration of 4000 IU/g, which corresponds to ca 6.8 mg/g. The solution was pH adjusted with a 50 mM citrate buffer to 4.0 in order to achieve reasonable chemical stability. The oxytocin solutions were added in excess, ca 1 g, on the donor side of the skin and covered to prevent evaporation.
The samples were thawed just prior analysis by HPLC, method M272-0. The limit of quantification (QL) is 12.5 ng/mL or 1.25 ng injected amount.

A short description of data set [3]: Bioavailability of vaginally administered oxytocin, study OXYPEP002. The class given is in vivo. As to conditions: human; for level at 0.5 h / level at 1 h / level at 2 h: post-dose; for level at 0.5 h: read-out: Average blood oxytocin level, 30 min Visit 2; for level at 1 h: read-out: Average blood oxytocin level, 60 min Visit 2; for level at 2 h: read-out: Average blood oxytocin level, 120 min Visit 2; for AUC(0-t): read-out: AUC0-30 min. On the procedure:
The objective of the present analysis was to estimate the bioavailability of oxytocin following vaginal administration of 100 (170 μg) or 400 IU (680 μg) oxytocin vaginal gel using data from study OXYPEP002 (Clinical trial protocol OXYPEP002). The oxytocin vaginal gel is Vagitocin® gel.
Data from study OXYPEP002 was used for the analysis. Study OXYPEP002 was conducted with the primary objective to investigate the dose-relationship of topical Vagitocin on the vaginal mucosal membrane (Clinical trial protocol OXYPEP002). OXYPEP002 was a double-blind, randomized, placebo controlled trial, with a parallel group design. Vagitocin (oxytocin gel) in two different doses (100 IU and 400 IU) was administered topically once daily during 7 weeks. A placebo gel with the same composition was used as comparator. In total 64 patients were to be included in the study. At the baseline visit (visit 1), blood sampling for oxytocin analysis were drawn for the first 24 included subjects. This sample represents the true baseline oxytocin observation. For the same 24 subjects, blood sampling for oxytocin analysis were also drawn at visit 2 (2 weeks ±2 days) with sampling pre-dose and at 30 min, 60 min and 120 min post-dose. Only subjects that completed the full sampling schedule were included in the analysis. The calculations were based on average blood oxytocin measurements for each dose level and sampling time point (Table 2).
The systemic oxytocin exposure following vaginally administered oxytocin was assessed by calculating the area under the blood concentration versus time curve (AUC) according to the trapezoidal rule. The data from visit 2 were used where the pre-dose sample was assumed to represent a new baseline observation.
The blood concentration of oxytocin had not returned to the baseline observation at the lasts sampling time point (120 min post-dose).
The endogenous oxytocin level (AUCbaseline) was calculated and subtracted from the total AUC to achieve the oxytocin exposure following the vaginally administered dose (AUCvaginal).
The bioavailability was calculated according to equation 1. As no intravenous dose was administered in study OXYPEP002, AUCiv was calculated according to available information in the literature (De Groot A N et al. 1995, Amico J A et al. 1987, Dawood M Y et al. 1980) according to equation 2.

The conditions of data set [4]: cited from earlier work.
The conditions of data set [5]: in vivo; cited from earlier work.
Setting [6] is: six male subjects, intravenous 1 IU (De Groot 1995).

Turning to `CC[C@H](C)[C@@H]1NC(=O)[C@H](Cc2ccc(O)cc2)NC(=O)[C@@H](N)CSSC[C@@H](C(=O)N2CCC[C@H]2C(=O)N[C@@H](CC(C)C)C(=O)NCC(N)=O)NC(=O)[C@H](CC(N)=O)NC(=O)[C@H](CCC(N)=O)NC1=O` [oxytocin, Cys-Tyr-Ile-Gln-Asn-Cys-Pro-Leu-Gly-NH2], the “fraction of the given dose absorbed” value in data set [1] (100 IU intravaginal) was 0.064; in data set [1] (400 IU intravaginal) it was 0.11. In addition, the “plasma oxytocin levels at 15, 30, 60 and 90 minutes after administration” value in data set [1] (100 and 400 IU intravaginal, FIG. 2) was “elevated in a pulse like fashion”. The “plasma levels of oxytocin” value in data set [1] (following 100 and 400 IU intravaginal, 90 minute period) is “rose dose dependently”. For the same compound, the “plasma oxytocin value obtained 10 hours after treatment” value in data set [1] (intravaginal, FIG. 2, vs before treatment) is “higher than those observed before treatment was started”. In addition, the “absorbed via the epithelial membrane into the blood stream” value in data set [1] (topical composition comprising a non-ionic cellulose ether) is recorded as “about 10%”. The “share that has penetrated the skin” value in data set [2] (after 24 h) is on record as 0.1%; in data set [2] (after 96 h) it was approximately 1%. Further, the “oxytocin penetrated into receptor” value in data set [2] (after 24 h, 4000 IU/g water solution) was 0.6 µg. The “oxytocin detected in the receptor chamber” value in data set [2] (after 96 hours, 4000 IU/g citrate buffered water solution, pH 4.0, 32° C.) worked out at 4 µg. Also, the AUC stood at 0.0633 ng·h/mL in data set [3] (female, blood, 100 IU, 100 IU vaginal, read-out: AUC30-60 min); 0.11 ng·h/mL in data set [3] (female, blood, 100 IU, 100 IU vaginal, read-out: AUC60-120 min); 0.346 ng·h/mL in data set [3] (female, blood, 100 IU, 100 IU vaginal, residual area alternative i, read-out: AUCresidual); 0.299 ng·h/mL in data set [3] (female, blood, 100 IU, 100 IU vaginal, residual area alternative i, read-out: AUCvaginal); 0.0322 ng·h/mL in data set [3] (female, blood, 100 IU, 100 IU vaginal, residual area alternative ii, read-out: AUCresidual); 0.156 ng·h/mL in data set [3] (female, blood, 100 IU, 100 IU vaginal, residual area alternative ii, read-out: AUCvaginal). The AUC in data set [3] (female, blood, 400 IU, 400 IU vaginal, read-out: AUC30-60 min) was 0.362 ng·h/mL; in data set [3] (female, blood, 400 IU, 400 IU vaginal, read-out: AUC60-120 min), 0.504 ng·h/mL; in data set [3] (female, blood, 400 IU, 400 IU vaginal, residual area alternative i, read-out: AUCresidual), 0.783 ng·h/mL; in data set [3] (female, blood, 400 IU, 400 IU vaginal, residual area alternative i, read-out: AUCvaginal), 1.53 ng·h/mL; in data set [3] (female, blood, 400 IU, 400 IU vaginal, residual area alternative ii, read-out: AUCresidual) it was 0.193 ng·h/mL; in data set [3] (female, blood, 400 IU, 400 IU vaginal, residual area alternative ii, read-out: AUCvaginal), 1.1 ng·h/mL. In data set [3] (in vivo, iv, 1 ug, AUCiv, assumed intravenous dose of 1 μg and a CL of 70 L/h), the AUC came to 0.0143 ng·h/mL. Also, the bioavailability in data set [3] (female, blood, 100 IU, 100 IU vaginal, residual area alternative i, read-out: Bioavailability) was 12%; in data set [3] (female, blood, 100 IU, 100 IU vaginal, residual area alternative ii, read-out: Bioavailability), 6.4%; in data set [3] (female, blood, 400 IU, 400 IU vaginal, residual area alternative i, read-out: Bioavailability) it was 16%; in data set [3] (female, blood, 400 IU, 400 IU vaginal, residual area alternative ii, read-out: Bioavailability), 11%; in data set [3] (female, blood, vaginal, 100 and 400 IU, read-out: bioavailability, range over both dose levels and alternatives) it was 6.4 to 16%. For the same compound, the level at 0.5 h in data set [3] (female, blood, 100 IU vaginal) turned out to be 0.133 ng/mL; in data set [3] (female, blood, 400 IU vaginal), 0.816 ng/mL. Also, the level at 1 h in data set [3] (female, blood, 100 IU vaginal) was 0.12 ng/mL; in data set [3] (female, blood, 400 IU vaginal), 0.63 ng/mL. The level at 2 h in data set [3] (female, blood, 100 IU vaginal) was determined as 0.099 ng/mL; in data set [3] (female, blood, 400 IU vaginal), 0.378 ng/mL. The AUC(0-t) in data set [3] (female, blood, 100 IU vaginal) was 0.0426 ng·h/mL; in data set [3] (female, blood, 400 IU vaginal), 0.219 ng·h/mL. Also, the CL in data set [4] (healthy male subjects (Amico 1987, Dawood 1980)) was 70 to 90 L/h. Moreover, the “clearance rate (CL)” value in data set [4] (known value used for AUC calculation) is 70 L/H. Besides, in data set [4] (setting [6]), the “terminal elimination half-life (t1/2)” value was 19.8 min. Also, the “volume of distribution (V)” value in data set [4] (setting [6]) is reported as 33.2 L. Besides, in data set [4] (six male subjects, intravenous dose of 1 IU (1.7 μg), two-compartment model (De Groot 1995)), the “total body CL” value was 67.1 L/h. Besides, the half-life result in data set [5] was “about 30 min”.
In the case of `CC[C@H](C)[C@@H]1NC(=O)[C@H](Cc2ccc(OC)cc2)NC(=O)CCCSC[C@@H](C(=O)N2CCC[C@H]2C(=O)N[C@@H](CC(C)C)C(=O)NCC(N)=O)NC(=O)[C@H](CC(N)=O)NC(=O)[C@H](CCC(N)=O)NC1=O` [carbetocin] (Y(Me)IQNCPLG-NH2; linker N-5 via X1), in data set [5], the “half-life relative to oxytocin” value is “about three times longer”.
